Results published in patent publication US5658943A, “Phenylalanine derivatives as endothelin antagonists” (Warner-Lambert Company, priority 1995, dated 1997).
Where a SMILES comes first, the peptide text is derived from it. [ ]: non-standard residue; d: D form.

Columns and labels:
recombinant human ETA R = biological target: T1, recombinant human ETA R (Homo sapiens, UniProt P25101); assay: [125I]-ET-1 radioligand binding, Ltk- cells expressing recombinant human ETA R (HERBA-A); conditions: [125I]-ET-1 (40 pM), 2 hours at 37° C.
T1 construct: expressed in transfected cells; host or cells: Ltk- cells (membranes)
T1 sequence (P25101 21-427): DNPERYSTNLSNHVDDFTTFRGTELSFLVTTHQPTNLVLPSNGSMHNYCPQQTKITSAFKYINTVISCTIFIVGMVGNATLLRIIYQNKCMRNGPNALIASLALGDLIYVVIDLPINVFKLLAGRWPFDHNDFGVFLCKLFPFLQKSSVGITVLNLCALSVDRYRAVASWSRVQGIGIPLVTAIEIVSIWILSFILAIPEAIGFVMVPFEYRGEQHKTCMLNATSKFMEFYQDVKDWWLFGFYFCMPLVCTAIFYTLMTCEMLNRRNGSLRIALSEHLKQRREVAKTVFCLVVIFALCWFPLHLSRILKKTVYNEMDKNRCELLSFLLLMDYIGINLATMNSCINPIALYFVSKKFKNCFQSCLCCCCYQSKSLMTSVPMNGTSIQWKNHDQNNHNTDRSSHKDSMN
Description: (§1) The compounds of Formula I are valuable antagonists of endothelin.
(§2) The following cultured cells were used in binding experiments: rabbit renal artery vascular smooth muscle cells (ERBA-A), Ltk-cells expressing recombinant human ETA R (HERBA-A), and CHO-K1 cells expressing recombinant human ETB R (HERBA-B).
(§3) Membranes were prepared from cultured cells by lysing cells in cold lysis buffer (5 mM HEPES, 2 mM EDTA, pH 7.4) and homogenizing with a Dounce "A" homogenizer. The homogenate was centrifuged at 30,000×g for 20 minutes at 4° C. Membrane pellets were suspended in cold buffer containing 20 mM Tris, 2 mM EDTA, 200 μM Pefabloc, 10 μM phosphoramidon, 10 μM leupeptin, 1 μM pepstatin at pH 7.4 and frozen at -80° C. until use. Membranes were thawed and homogenized with a Brinkmann Polytron then diluted in tissue buffer containing 20 mM Tris, 2 mM EDTA, 200 μM Pefabloc and 100 μM bacitracin (pH 7.4). Radioligand and competing ligands were prepared in binding buffer containing 20 mMTris, 2 mM EDTA, and 0.1% BSA.
(§4) Competing binding assays were initiatedby combining membranes, [125I]-ET-1 (40 pM) and the competing ligand in a final volume of 250 μL and incubating for 2 hours at 37° C. The assay was terminated by filtration over Whatman GF/B filters which were presoaked with 50 mM Tris, pH 7.4 containing 0.2% BSA and 100 μM bacitracin. Nonspecific binding was defined as binding in the presence of 100 nMET-1.

[1] = biological target: T2, rabbit renal artery vascular smooth muscle cells (ETA) (Oryctolagus cuniculus, UniProt A5A8K3); assay: [125I]-ET-1 radioligand binding, rabbit renal artery vascular smooth muscle cells (ERBA-A); conditions: [125I]-ET-1 (40 pM), 2 hours at 37° C.
T2 construct: endogenous in cells; host or cells: cultured rabbit renal artery vascular smooth muscle cells (membranes)
T2 sequence (A5A8K3 21-427): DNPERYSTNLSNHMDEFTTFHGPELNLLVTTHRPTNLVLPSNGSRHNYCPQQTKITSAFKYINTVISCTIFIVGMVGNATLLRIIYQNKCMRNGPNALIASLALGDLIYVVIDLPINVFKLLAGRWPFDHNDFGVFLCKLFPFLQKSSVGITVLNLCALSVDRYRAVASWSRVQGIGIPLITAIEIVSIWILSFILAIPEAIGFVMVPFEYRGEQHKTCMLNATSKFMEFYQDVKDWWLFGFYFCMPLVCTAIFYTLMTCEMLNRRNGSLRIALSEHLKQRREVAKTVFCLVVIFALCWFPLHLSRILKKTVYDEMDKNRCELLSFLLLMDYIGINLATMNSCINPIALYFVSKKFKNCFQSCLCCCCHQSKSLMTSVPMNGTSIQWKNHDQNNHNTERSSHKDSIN
Description: as §1, §2, §3, §4

recombinant human ETB R = biological target: T3, recombinant human ETB R (Homo sapiens, UniProt P24530); assay: [125I]-ET-1 radioligand binding, CHO-K1 cells expressing recombinant human ETB R (HERBA-B); conditions: [125I]-ET-1 (40 pM), 2 hours at 37° C.
T3 construct: expressed in transfected cells; host or cells: CHO-K1 cells (membranes)
T3 sequence (P24530 27-442): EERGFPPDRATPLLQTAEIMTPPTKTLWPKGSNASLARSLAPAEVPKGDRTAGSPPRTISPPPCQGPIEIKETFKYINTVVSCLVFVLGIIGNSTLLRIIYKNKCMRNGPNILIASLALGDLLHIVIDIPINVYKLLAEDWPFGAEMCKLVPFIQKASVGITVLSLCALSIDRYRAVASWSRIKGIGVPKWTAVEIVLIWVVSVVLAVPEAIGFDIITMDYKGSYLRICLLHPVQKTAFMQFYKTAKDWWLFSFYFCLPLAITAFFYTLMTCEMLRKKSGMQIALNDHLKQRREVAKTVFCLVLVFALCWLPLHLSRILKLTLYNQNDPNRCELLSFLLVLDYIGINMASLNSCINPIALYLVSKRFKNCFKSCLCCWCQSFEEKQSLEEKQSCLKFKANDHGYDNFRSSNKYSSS

ETB = conditions: isolated, endothelium-intact porcine pulmonary arteries; cited from earlier work
endothelin receptor [2] = conditions: rats; cited from earlier work
endothelin receptor [3] = conditions: rats; cited from earlier work; remark: listed apart in the source
rat cerebellum (ETB) = assay: inhibition of ET-1 stimulated arachidonic acid release (AAR-B); assay type: cell-based; conditions: ET-1 (0.3 nM) stimulated [3H]arachidonic acid release, 30 minutes
Source text: as §1

ETA [4] = conditions: in vivo; cited from earlier work
ETA [5] = conditions: mouse model of endotoxic shock; cited from earlier work
ET receptor = conditions: allergic sheep; cited from earlier work
ETA /ETB receptor = conditions: in vivo; cited from earlier work

Molecule | IC50 (recombinant human ETA R) [µM] | IC50 [1] [µM] | IC50 (recombinant human ETB R) [µM] | other results
COc1cccc(CC(NC(=O)C(c2ccccc2)c2ccccc2)C(=O)O)c1Oc1ccc([N+](=O)[O-])cc1 (racemic) [Example 8, (R,S)-2-Diphenylacetylamino-3-[3-method-2-(4-nitro-phenol)phenyl]propionicacid] | > 25 | 17 |  | 
O=C(O)C(Cc1ccccc1OCc1ccccc1)NC(=O)C(c1ccccc1)c1ccccc1 (racemic) [Example 14, (R,S)-3-(2-Benzyloxyphenyl)-2-diphenylacetylamino-propionic acid] |  | > 25 | 23 | 
ET[1,3,11,15-Ala] |  |  |  | vasorelaxation (ETB): caused vasorelaxation
O=C(NC(C(=O)O)C(c1ccc2c(c1)OCO2)c1ccc2c(c1)OCO2)c1ccc2c(c1)OCO2 (racemic) [Example 38, (R,S)-2-[(Benzo[1,3]dioxole-5-carbonyl)-amino]-3,3-bis-benzo [1,3]dioxol-5-yl-propionic acid] | 1.3 |  | 13 | 
COc1ccc(C(c2ccc3c(c2)OCO3)C(NC(=O)C(c2ccccc2)c2ccccc2)C(=O)O)cc1OCc1ccccc1 (racemic) [Example 23, (R,S: R,S)-3-Benzo[1,3]dioxol-5-yl-3-(3-benzyloxy-4-methoxyphenyl)-2-diphenyl-acetylaminopropionic acid] | 27 |  | 12 | 
COc1cccc(Oc2c(NS(=O)(=O)c3ccc(C(C)(C)C)cc3)ncnc2OCCO)c1 [RO 46-2005] |  |  |  | efficacy in model of subarachnoid hemorrhage (endothelin receptor [2]): effective; efficacy in model of acute renal ischemia (endothelin receptor [3]): effective
CC(C)c1ccc(S(=O)(=O)NC(C(=O)O)C(c2ccc3c(c2)OCO3)c2ccc3c(c2)OCO3)cc1 (racemic) [Example 40, (R,S)-3,3-Bis-benzo[1,3]dioxol-5-yl-2-(4-isopropyl-benzenesulfonylamino)-propionic acid] | 4 |  | 16 | 
CC(C)C[C@@H]1NC(=O)[C@@H](C(C)C)NC(=O)[C@@H]2CCCN2C(=O)[C@@H](CC(=O)O)NC(=O)[C@@H](Cc2c[nH]c3ccccc23)NC1=O [BQ-123] (cyclo(L[dW][dD]P[dV])) |  |  |  | early cerebral vasospasm following subarachnoid hemorrhage (ETA [4]): prevent early cerebral vasospasm; survival rate (ETA [5]): significantly increased; ET-1 induced bronchoconstriction and tracheal smooth muscle contraction (ET receptor): block
CCCOc1ccc2c(c1)[C@@H](c1ccc(OC)cc1OCC(=O)O)[C@H](C(=O)O)[C@H]2c1ccc2c(c1)OCO2 [SB 209670] |  |  |  | neointimal formation after angioplasty (ETA /ETB receptor): reduced neointimal formation

Further lines, with some results ahead:

IC50 (recombinant human ETA R) [µM] | IC50 [1] [µM] | IC50 (recombinant human ETB R) [µM] | Molecule | other results
3.4 | 16 | 1 | COc1cccc(CC(NC(=O)C(c2ccccc2)c2ccccc2)C(=O)O)c1OCCc1ccccc1 (racemic) [Example 4, (R,S)-2-Diphenylacetylamino-3-[3-methoxy-2-(2-phenyl-ethoxy)phenyl]propionic acid] | IC50 (rat cerebellum (ETB)): 6.1 µM
 | 7.1 | 9.7 | COc1cccc(CC(NCC(c2ccccc2)c2ccccc2)C(=O)O)c1OCc1ccccc1 (racemic) [Example 16, (R,S)-3-(2-Benzyloxy-3-methoxyphenyl)-2-(2,2-diphenyl-ethylamino)propionic acid] | 
3.4 |  | 2 | COc1cccc(CC(NC(=O)C(c2ccccc2)c2ccccc2)C(=O)O)c1OCc1ccccc1 (racemic) [Example 3, (R,S)-N-(Diphenylacetyl)-3-methoxy-2-(phenylmethoxy)-phenylalanine] | IC50 (rat cerebellum (ETB)): 10 µM
 | 23 | 2.2 | COc1cccc(CC(NC(=O)C(c2ccccc2)C2CCCC2)C(=O)O)c1OCc1ccccc1 (racemic) [Example 10, (R,S; R,S)-3-(2-Benzyloxy-3-methoxyphenyl)-2-(2-cyclopentyl-2-phenyl-acetylamino)propionic acid] | 
1.3 |  | 2.5 | O=C(NC(C(=O)O)C(c1ccc2c(c1)OCO2)c1ccc2c(c1)OCO2)C(c1ccccc1)c1ccccc1 (centres unmarked) [Example 21, 3,3 -Bis-benzo[1,3]dioxol-5-yl-2-diphenylacetylamino-propionic acid] | 
9.3 |  | 9.4 | COc1cccc(CC(NC(=O)C(c2ccccc2)c2ccccc2)C(=O)O)c1OCCCc1ccccc1 (racemic) [Example 7, (R,S)-Diphenylacetylamino-3-[3-methoxy-2-(3-phenyl-propoxy)phenyl]propionicacid] | 
 | > 25 | 2.2 | COc1cccc(CC(NC(=O)C(Cc2cccc3ccccc23)Cc2cccc3ccccc23)C(=O)O)c1OCc1ccccc1 (racemic) [Example 9, (R,S)-3-(2-Benzyloxy-3-methoxyphenyl)-2-(3-naphthalen-1-yl-2-naphthalen-1-ylmethylpropionylamino)propionic acid] | 
 | 13 | 6.8 | COc1cccc(CC(NC(=O)N(c2ccccc2)c2ccccc2)C(=O)O)c1OCc1ccccc1 (racemic) [Example 5, (R,S)-3-(2Benzyloxy-3-methoxyphenyl)-2-(3,3-diphenyl-ureido) propionic acid] | 
1.8 |  | 3 | COc1cccc(SC(c2cccc(OC)c2)C(NC(=O)C(c2ccccc2)c2ccccc2)C(=O)O)c1 (racemic) [Example 35, (R,S; R,S)-2-Diphenylacetylamino-3-(3-methoxyphenyl)-3-(3-methoxyphenyl-sulfanyl)propionic acid] | 
